Assay results from patent publication US7592373B2 (Boehringer Ingelheim International GmbH, priority 2003, dated 2009).
Where a name gives a salt, the structure may show the parent alone.

Row | Compound | melting point
1 | CC1CCN(Cc2ccc(NC(=O)C#Cc3ccc(-c4ccc(Cl)cc4)cc3)cc2)CC1 [Example 3.14, 3-(4′-chlorobiphenyl-4-yl)propynoic acid-[4-(4-methylpiperidin-1-ylmethyl)phenyl]amide] | 263 to 268 °C
2 | CCN(CC)CCOc1ccc(NC(=O)C#Cc2ccc(Cl)cc2Cl)c(Cl)c1 (as salt: hydrochloride) [Example 4.8, 3-(2,4-dichlorophenyl)propynoic acid-[2-chloro-4-(2-diethylaminoethoxy)phenyl]amide] | 128 to 130 °C
3 | COc1cc(NC(=O)C#Cc2ccc(C(F)(F)F)cc2Cl)ccc1OCCN1CC(C)CC(C)C1 (stereo not drawn) [Example 4.271, 3-(2-chloro-4-trifluoromethylphenyl)propynoic acid-{4-[2-(3,5-dimethylpiperidin-1-yl)ethoxy]-3-methoxyphenyl}amide] | 196 to 201 °C
4 | O=C(C#Cc1ccc(CCN2CCCC2)cc1)Nc1ccc(-c2ccccc2)cc1 [Example 2.1, 3-[4-(2-pyrrolidin-1-ylethyl)phenyl]propynoic Acid biphenyl-4-ylamide] | 180 to 189 °C
5 | COc1cc(NC(=O)C#Cc2ccc(C(F)(F)F)cc2Cl)ccc1OCCN1CCC(OC)CC1 [Example 4.274, 3-(2-chloro-4-trifluoromethylphenyl)propynoic acid-{3-methoxy-4-[2-(4-methoxypiperidin-1-yl)ethoxy]phenyl}amide] | 195 to 197 °C
6 | CC1(O)CCN(Cc2ccc(C#CC(=O)Nc3ccc(-c4ccc(Cl)cc4)cc3)cc2)CC1 [Example 1.37, 3-[4-(4-hydroxy-4-methylpiperidin-1-ylmethyl)phenyl]propynoic acid-(4′-chlorobiphenyl-4-yl)amide] | 192 to 193 °C
7 | O=C(C#Cc1ccc(CN2CCCC2)cc1)Nc1ccc(-c2ccc(Cl)cc2)cc1F [Example 1.17, 3-(4-pyrrolidin-1-ylmethylphenyl)propynoic acid-(4′-chloro-3-fluorobiphenyl-4-yl)amide] | 136 °C
8 | CCN(CC)CCOc1ccc(NC(=O)C#Cc2c(Cl)cc(Cl)cc2Cl)cc1Cl (as salt: hydrochloride) [Example 4.5, 3-(2,4,6-trichlorophenyl)propynoic acid-[3-chloro-4-(2-diethylaminoethoxy)phenyl]amide hydrochloride] | 188 to 191 °C
9 | COc1cc(NC(=O)C#Cc2ccc(C(F)(F)F)cc2Cl)ccc1OCCN1C(C)CCCC1C (stereo not drawn) [Example 4.277, 3-(2-chloro-4-trifluoromethylphenyl)propynoic acid-{4-[2-(2,6-dimethylpiperidin-1-yl)ethoxy]-3-methoxyphenyl}amide] | 225 to 227 °C
10 | CCN(CC)CCOc1ccc(NC(=O)C#Cc2ccc(-c3ccccc3)cc2)cc1Cl [Example 4.4, 3-biphenyl-4-ylpropynoic acid-[3-chloro-4-(2-diethylaminoethoxy)phenyl]amide] | 105 to 108 °C
11 | CC1CCN(C2(c3ccc(C#CC(=O)Nc4ccc(-c5ccc(Cl)cc5)cc4)cc3)CC2)CC1 [Example 1.424, 3-{4-[1-(4-methylpiperidin-1-yl)cyclopropyl]phenyl}propynoic acid(4′-chlorobiphenyl-4-yl)amide] | 128 to 129 °C
12 | CC1CCCC(C)N1Cc1ccc(NC(=O)C#Cc2ccc(-c3ccc(Cl)cc3)cc2)cc1 (stereo not drawn) [Example 3.9, 3-(4′-chlorobiphenyl-4-yl)propynoic acid-[4-(2,6-dimethylpiperidin-1-ylmethyl)phenyl]amide] | 158 to 163 °C
13 | CN(Cc1ccc(NC(=O)C#Cc2ccc(-c3ccc(Cl)cc3)cc2)cc1)CC1CC1 [Example 3.15, 3-(4′-chlorobiphenyl-4-yl)propynoic acid-{4-[(cyclopropylmethylmethylamino)methyl]phenyl}amide] | 164 to 167 °C
14 | O=C(C#Cc1ccc(CN2CCCCC2)cc1)Nc1ccc(-c2ccc(Cl)cc2)cc1 [Example 1.39, 3-(4-piperidin-1-ylemthylphenyl)propynoic acid-(4′-chlorobiphenyl-4-yl)amide] | 179.5 °C
15 | O=C(C#Cc1ccc(-c2ccc(Cl)cc2)cc1)Nc1ccc(CN2CCC(O)CC2)cc1 [Example 3.18, 3-(4′-chlorobiphenyl-4-yl)propynoic acid-[4-(4-hydroxy-1-piperidin-1-ylmethyl)phenyl]amide] | 243 to 247 °C
16 | O=C(C#Cc1ccc(-c2ccc(Cl)cc2)cn1)Nc1ccc(CN2CCC(O)CC2)cc1 [Example 3.168, 3-[5-(4-chlorophenyl)pyridin-2-yl]propynoic acid-[4-(4-hydroxypiperidin-1-ylmethyl)phenyl]amide] | 186 to 190 °C
17 | COC1CCN(Cc2ccc(C#CC(=O)Nc3ccc(-c4ccc(Cl)cc4)cc3)cc2)CC1 [Example 1.36, 3-[4-(4-methoxypiperidin-1-ylmethyl)phenyl]propynoic acid-(4′-chlorobiphenyl-4-yl)amide] | 145 to 146 °C
18 | CNC1(c2ccc(C#CC(=O)Nc3ccc(-c4ccc(Cl)cc4)cc3)cc2)CC1 (as salt: trifluoroacetate) [Example 1.423, 3-[4-(1-methylaminocyclopropyl)phenyl]propynoic acid-(4′-chlorobiphenyl-4-yl)amide trifluoroacetate] | 217.3 °C
19 | O=C(C#Cc1ccc(CN2CCC(O)CC2)cc1)Nc1ccc(-c2ccc(Cl)cc2)cc1F [Example 1.21, 3-[4-(4-hydroxypiperidin-1-ylmethyl)phenyl]propynoic acid-(4′-chloro-3-fluorobiphenyl-4-yl)amide] | 164 to 165 °C
20 | CC1CC(C)CN(Cc2ccc(NC(=O)C#Cc3ccc(-c4ccc(Cl)cc4)cc3)cc2)C1 (stereo not drawn) [Example 3.12, 3-(4′-chlorobiphenyl-4-yl)propynoic acid-[4-(3,5-dimethylpiperidin-1-ylmethyl)phenyl]amide] | 209 to 214 °C
21 | O=C(C#Cc1ccc(CNCCC2CCCCC2)cc1)Nc1ccc(-c2ccc(Cl)cc2)cc1 [Example 1.52, 3-{4-[(cyclohexylethylamino)methyl]phenyl}propynoic acid-(4′-chlorobiphenyl-4-yl)amide] | 156 to 157 °C

Further lines, results first:

Row | melting point | Compound
22 | 222 to 223 °C | COCCN(C)Cc1ccc(/C=C/C(=O)Nc2ccc(-c3ccc(Cl)cc3)cc2)cc1 [Example 5.14]
23 | 212 to 213 °C | CC1CN(Cc2ccc(/C=C/C(=O)Nc3ccc(-c4ccc(Cl)cc4)cc3)cc2)CC(C)O1 (stereo not drawn) [Example 5.23, (E)-N-(4′-chlorobiphenyl-4-yl)-3-[4-(2,6-dimethylmorpholin-4-ylmethyl)phenyl]acrylamide]
24 | 262 to 263 °C | O=C(/C=C/c1ccc(CNCC2CCCCC2)cc1)Nc1ccc(-c2ccc(Cl)cc2)cc1 [Example 5.21, (E)-N-(4′-chlorobiphenyl-4-yl)-3-{4-[(cyclohexylmethylamino)methyl]phenyl}acrylamide]
25 | 250 °C | O=C(/C=C/c1ccc(CN2CCC3(CCCC3)CC2)cc1)Nc1ccc(-c2ccc(Cl)cc2)cc1 [Example 5.25, (E)-3-[4-(8-azaspiro[4.5]dec-8-ylmethyl)phenyl]-N-(4′-chlorobiphenyl-4-yl)acrylamide]
26 | 178 to 179 °C | O=C(/C=C/c1ccc(CN(CCO)C2CCCCC2)cc1)Nc1ccc(-c2ccc(Cl)cc2)cc1 [Example 5.38, (E)-N-(4′-chlorobiphenyl-4-yl)-3-(4-{[cyclohexyl-(2-hydroxyethyl)amino]methyl}phenyl)acrylamide]
27 | 205 to 206 °C | COC1CCN(Cc2ccc(/C=C/C(=O)Nc3ccc(-c4ccc(Cl)cc4)cc3)cc2)CC1 [Example 5.4, (E)-N-(4′-chlorobiphenyl-4-yl)-3-[4-(4-methoxypiperidin-1-ylmethyl)phenyl]acrylamide]
28 | 219 °C | O=C(/C=C/c1ccc(CN2CCCC2)cc1)Nc1ccc(-c2ccc(Cl)cc2)cc1 [Example 5.13, (E)-N-(4′-chlorobiphenyl-4-yl)-3-(4-pyrrolidin-1-ylmethylphenyl)acrylamide]
29 | 178 to 179 °C | O=C(/C=C/c1ccc(CN2CC[C@H](O)C2)cc1)Nc1ccc(-c2ccc(Cl)cc2)cc1 [Example 5.9, (E)-N-(4′-chlorobiphenyl-4-yl)-3-[4-((S)-3-hydroxypyrrolidin-1-ylmethyl)phenyl]acrylamide]
30 | 125 to 126 °C | COCCN(Cc1ccc(/C=C/C(=O)Nc2ccc(-c3ccc(Cl)cc3)cc2)cc1)CC(C)(C)O [Example 5.27, (E)-N-(4′-chlorobiphenyl-4-yl)-3-(4-{[(2-hydroxy-2-methylpropyl)-(2-methoxyethyl)amino]methyl}phenyl)acrylamide]
31 | 190 to 191 °C | O=C(/C=C/c1ccc(CN2CCC(CO)CC2)cc1)Nc1ccc(-c2ccc(Cl)cc2)cc1 [Example 5.8, (E)-N-(4′-chlorobiphenyl-4-yl)-3-[4-(4-hydroxymethylpiperidin-1-ylmethyl)phenyl]acrylamide]
32 | 171 to 172 °C | O=C(CCc1ccc(CN2CC[C@H](O)C2)cc1)Nc1ccc(-c2ccc(Cl)cc2)cc1 [Example 6.7, N-(4′-chlorobiphenyl-4-yl)-3-[4-((S)-3-hydroxypyrrolidin-1-ylmethyl)phenyl]propionamide]
33 | 209 to 210 °C | O=C(/C=C/c1ccc(CN2CCC(N3CCCCC3)C2)cc1)Nc1ccc(-c2ccc(Cl)cc2)cc1 (stereo not drawn) [Example 5.28, (E)-N-(4′-chlorobiphenyl-4-yl)-3-[4-(3-piperidin-1-ylpyrrolidin-1-ylmethyl)phenyl]acrylamide]
34 | 246 to 247 °C | CN(Cc1ccc(/C=C/C(=O)Nc2ccc(-c3ccc(Cl)cc3)cc2)cc1)CC1CC1 [Example 5.17, (E)-N-(4′-chlorobiphenyl-4-yl)-3-{4-[(cyclopropylmethylmethylamino)methyl]phenyl}acrylamide]
35 | 164 to 169 °C | C[C@@H]1C[C@H](C)CN(Cc2ccc(CCC(=O)Nc3ccc(-c4ccc(Cl)cc4)cc3)cc2)C1 [Example 6.26, N-(4′-chlorobiphenyl-4-yl)-3-[4-((3S,5R)-3,5-dimethylpiperidin-1-ylmethyl)phenyl]propionamide]
36 | 185 to 188 °C | COc1ccc(-c2ccc(NC(=O)CCc3ccc(CN4CCCC4)cc3)cc2)cc1 [Example 6.1, N-(4′-methoxybiphenyl-4-yl)-3-(4-pyrrolidin-1-ylmethylphenyl)propionamide]
